Like-named read-outs stand apart in the source and are kept apart here.
Legend:
PI 4-kinase = experiment: Effect on PI 4-kinase; assay type: biochemical
[1] = molecular target: bovine brain purified PI 3-kinase; experiment: Assay of purified PI 3-kinase activity (32P incorporation into phosphatidylinositol, TLC/scintillation); assay type: biochemical
Procedure: In another, preferred, method, PI 3-kinase was prepared from bovine brain. Two bovine brains (wet weight about 900 g) were obtained from a local slaughterhouse within minutes of slaughter, packed on ice, and homogenized within one hour. Brains were trimmed of excess fat and blood vessels and then homogenized using a Tekmar Tissuemizer (Cincinnati, Ohio) at 4° C. in 20 mM of Tris(pH 8.3) containing 250 mM of sucrose, 6 mM of β-mercaptoethanol, 1 μg/ml of leupeptin, 1 μg/ml of pepstatin A, 0.4 mM of PMSF, and 1 mM of MgCl2.
Following centrifugation for 60 minutes at 10,000×g, the pH of the supernatant (about 1200 mL) was lowered to 5.75 using dropwise addition of 1M acetic acid at 4° C. After stirring for an additional 15 minutes at 4° C., the solution was centrifuged for 60 minutes at 13,500×g. The supernatant was discarded. Pellets were resuspended in Buffer A (20 mM of Tris, pH 8.3, containing 6 mM of β-mercaptoethanol, 0.1 mM of ethylene glycol-bis(β-aminoethyl ether) N,N,N',N'-tetraacetic acid (EGTA), 1 μg/mL of leupeptin, 1 μg/mL of pepstatin A, and 1 mM of MgCl2), and loaded onto a Fast Flow Q Sepharose column (300 ml) at a flow rate of 5 mL/min at 4° C. […]
PI 3-kinase activity was measured as previously described by Matter, W. F., et al., Biochemical and Biophysical Research Communications, 186: 624-631 (1992). […]

Structure (SMILES): COC[C@H]1OC(=O)c2coc3c2[C@@]1(C)C1=C(C3=O)[C@@H]2CC[C@H](O)[C@@]2(C)C[C@H]1OC(C)=O [17β-hydroxywortmannin]
- effect on PI 4-kinase (PI 4-kinase): no effect
- IC50 [1]: 0.2 ng/mL
- IC50 ([1]; molar value printed in parentheses, read-out: IC50): 0.46 nM

Source: patent publication US5504103A, “Inhibition of phosphatidylinositol 3-kinase with 17 β-hydroxywortmannin and analogs thereof” (Eli Lilly and Company, priority 1993, dated 1996)
